Reference: ChEMBL document CHEMBL1201862, “PubChem BioAssay data set” (2004)
Active and inactive are the calls of the source.

How the values were obtained:
[1] = molecular target: T1, Caspase-3 (Homo sapiens, UniProt P42574); assay: Dose-response confirmation of uHTS inhibitor hits of Sentrin-Specific Protease 8 in a Caspase-3 Fluorescence assay.; type: functional
T1 sequence (P42574 whole entry): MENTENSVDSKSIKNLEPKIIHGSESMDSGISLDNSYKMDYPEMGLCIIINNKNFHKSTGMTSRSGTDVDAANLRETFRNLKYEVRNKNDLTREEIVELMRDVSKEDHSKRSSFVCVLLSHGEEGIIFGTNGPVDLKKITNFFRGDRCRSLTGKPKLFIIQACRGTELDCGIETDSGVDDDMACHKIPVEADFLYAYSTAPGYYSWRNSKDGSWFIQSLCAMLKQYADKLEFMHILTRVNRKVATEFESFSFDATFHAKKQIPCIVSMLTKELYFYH

[2] = molecular target: T2, Mannose-6-phosphate isomerase (Homo sapiens, UniProt P34949); assay: MPI inhibition at elevated mannose 6-phosphate – biochemical, fluorescence intensity, high mannose 6-phosphate, primary screen (AID 1220)
T2 sequence (P34949 whole entry): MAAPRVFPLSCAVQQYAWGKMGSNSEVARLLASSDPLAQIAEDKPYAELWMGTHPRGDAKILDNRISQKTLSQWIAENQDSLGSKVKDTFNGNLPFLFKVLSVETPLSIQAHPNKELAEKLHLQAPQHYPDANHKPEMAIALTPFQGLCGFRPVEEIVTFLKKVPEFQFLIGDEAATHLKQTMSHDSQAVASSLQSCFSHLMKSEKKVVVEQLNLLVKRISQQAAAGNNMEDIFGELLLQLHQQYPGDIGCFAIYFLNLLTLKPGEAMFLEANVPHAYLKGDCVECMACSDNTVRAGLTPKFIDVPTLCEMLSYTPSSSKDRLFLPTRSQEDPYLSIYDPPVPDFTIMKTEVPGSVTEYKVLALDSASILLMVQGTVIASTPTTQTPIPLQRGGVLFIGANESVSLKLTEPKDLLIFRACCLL

[3] = molecular target: T3, Neuropeptides B/W receptor type 1 (Homo sapiens, UniProt P48145); assay: Fluorescence-based dose response cell-based high throughput screening assay to identify antagonists of the G-protein coupled receptor 7 (GPR7). [Related pubchem assays: 1952 (Screening assay (GPR7 antagonists).), 1880 (Summary AID.)]; type: functional
T3 sequence (P48145 whole entry): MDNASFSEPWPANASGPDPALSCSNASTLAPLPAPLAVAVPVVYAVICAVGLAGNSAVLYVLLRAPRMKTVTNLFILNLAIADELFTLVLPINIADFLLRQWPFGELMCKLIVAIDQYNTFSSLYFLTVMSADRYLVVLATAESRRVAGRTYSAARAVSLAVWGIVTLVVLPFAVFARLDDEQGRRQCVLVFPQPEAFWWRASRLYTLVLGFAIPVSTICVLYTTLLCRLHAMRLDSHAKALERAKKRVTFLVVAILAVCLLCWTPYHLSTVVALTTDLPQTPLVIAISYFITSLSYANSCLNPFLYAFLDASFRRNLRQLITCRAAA

[4] = molecular target: T4, Tyrosine-protein phosphatase non-receptor type 22 (Homo sapiens, UniProt Q9Y2R2); assay: inhibition of lymphoid tyrosine phosphatase LYP – biochemical, pCAP fluorogenic substrate, fluorescence, set 3, SAR follow-up (AID 449727); type: functional
T4 sequence (Q9Y2R2 whole entry): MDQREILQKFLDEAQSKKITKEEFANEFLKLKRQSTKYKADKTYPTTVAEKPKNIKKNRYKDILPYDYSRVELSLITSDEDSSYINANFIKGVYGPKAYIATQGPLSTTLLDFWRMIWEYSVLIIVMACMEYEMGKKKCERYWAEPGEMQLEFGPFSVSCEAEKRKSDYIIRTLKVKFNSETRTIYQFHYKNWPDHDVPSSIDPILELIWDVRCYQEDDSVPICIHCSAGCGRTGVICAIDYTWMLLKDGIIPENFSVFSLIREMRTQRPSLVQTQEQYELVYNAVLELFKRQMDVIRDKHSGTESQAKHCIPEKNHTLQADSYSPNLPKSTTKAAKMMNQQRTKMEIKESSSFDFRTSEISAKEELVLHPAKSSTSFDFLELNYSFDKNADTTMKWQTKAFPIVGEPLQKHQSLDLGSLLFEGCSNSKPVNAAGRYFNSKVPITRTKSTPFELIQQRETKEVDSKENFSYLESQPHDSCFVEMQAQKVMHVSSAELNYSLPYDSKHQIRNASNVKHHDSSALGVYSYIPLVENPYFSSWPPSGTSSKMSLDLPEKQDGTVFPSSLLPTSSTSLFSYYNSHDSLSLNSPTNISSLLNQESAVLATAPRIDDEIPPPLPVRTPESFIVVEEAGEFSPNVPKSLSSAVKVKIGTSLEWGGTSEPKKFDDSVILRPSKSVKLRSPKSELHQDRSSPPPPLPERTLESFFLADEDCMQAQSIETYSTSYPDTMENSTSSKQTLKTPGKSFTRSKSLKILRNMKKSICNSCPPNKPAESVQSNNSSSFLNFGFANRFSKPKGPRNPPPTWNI

## COc1cc(NCCCNC(C)C)c2nccc(C)c2c1
[1]
  IC50: 13.8 µM (active)

## Cc1oc2c(c1C(=O)c1ccccc1)C(=O)C(=O)c1ccccc1-2
[2]
  IC50: > 50 µM (not active)

## CCN1/C(=C/c2ccc3cc(C)ccc3[n+]2CC)Sc2cc(C)c(C)cc21
[3]
  IC50: 9.2 µM (active)

## O=C(O)COc1ccc(/C=N/NC(=O)c2ccc(-c3csc(Nc4ccc(Cl)cc4)n3)cc2)cc1
[4]
  IC50: 0.369 µM (active)
